The values that follow come from patent US20120309796A1, “BENZOCYCLOHEPTENE ACETIC ACIDS” (priority 2011, published 2012).

SMILES strings stand for the structures. pIC50: −log10 of the molar value.

In the test the target is T1, human CRTH2 (Homo sapiens, UniProt Q9Y5Y4).
T1 sequence (Q9Y5Y4 1-395): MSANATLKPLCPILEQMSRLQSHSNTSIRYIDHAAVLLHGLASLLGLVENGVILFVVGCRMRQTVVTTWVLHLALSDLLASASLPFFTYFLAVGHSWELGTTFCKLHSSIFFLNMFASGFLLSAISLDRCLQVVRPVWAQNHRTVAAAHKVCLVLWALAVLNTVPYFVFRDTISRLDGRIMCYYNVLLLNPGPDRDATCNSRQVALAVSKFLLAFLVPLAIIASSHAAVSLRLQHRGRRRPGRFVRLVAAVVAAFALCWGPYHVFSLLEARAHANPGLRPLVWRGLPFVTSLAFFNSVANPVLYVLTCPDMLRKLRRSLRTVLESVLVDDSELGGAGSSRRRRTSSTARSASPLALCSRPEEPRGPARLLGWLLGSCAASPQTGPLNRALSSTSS
In words: Calcium Flux Assay Using Fluorometric Imaging Plate Reader (FLIPR). It counts as cell-based. Set-up: expressed in transfected cells; host or cells: CHO-K1 previously transfected with G-alpha 16. The following applies: CHO-K1 cells with G-alpha 16 and human CRTH2; inhibition of DK-PGD2 ligand-induced Ca2+ flux. The protocol:
CHO-K1 cells previously transfected with G-alpha 16 were subsequently transfected with the human CRTH2 receptor and the neomycin resistance gene. Following selection in 800 μg/mL G418 (geneticin), individual clones were assayed for their receptor expression based on staining with an anti human CRTH2 IgG, followed by assaying for their response to 13,14-dihydro-15-keto Prostaglandin D2 (DK-PDG2) (ligand) in the Ca^2+ Flux assay. Positive clones were then cloned by limiting dilution cloning. The transfected cells were cultured in Ham's F-12 medium supplemented with 10% fetal bovine serum, 2 mM glutamine, 100 U/mL penicillin/100 μg/mL streptomycin, 200 μg/mL hygromycin B, and 800 μg/mL G418 (geneticin). Cells were harvested with trypsin-EDTA (trypsin-ethylenediaminetetraacetic acid) and counted using ViaCount® reagent (from Guava Technologies, Inc. which contains two DNA-binding dyes that enable the reagent user to distinguish between viable and non-viable cells). The cell suspension volume was adjusted to 2.5×10^5 cells/mL with complete growth media. Aliquots of 50 μL were dispensed into BD Falcon™ 384 well black/clear microplates (from BD Biosciences, a division of Becton, Dickinson and Company) and the microplates were placed in a 37° C. CO2 incubator overnight. The following day, the microplates were used in the assay.
Loading Buffer containing dye (from the FLIPR® Calcium 3 Assay Kit from Molecular Devices, a division of MDS Analytical Technologies and MDS Inc.) was prepared by dissolving the contents of one bottle into 200 mL Hank's Balanced Salt Solution containing 20 mM HEPES (4-(2-hydroxyethyl)-1-piperazineethanesulfonic acid) and 2.5 mM probenecid. Growth media was removed from the cell plates and 25 μL of Hank's Balanced Salt Solution (HBSS) containing 20 mM HEPES, 0.05% BSA and 2.5 mM probenecid was added to each well followed by 25 μL of diluted dye using a Multidrop dispenser. The plates were then incubated for 1 hour at 37° C.
During the incubation, test compound plates were prepared by adding 90 μL of HBSS/20 mM HEPES/0.005% BSA buffer to the 2 μL of serial diluted compounds. To prepare serial diluted compounds, 20 mM stocks of compounds were dissolved in 100% DMSO. The compound dilution plate was set up as follows: well #1 received 5 μL of compound plus 10 μL of DMSO. Wells 2-10 received 10 μL of DMSO. 5 μL was mixed and transferred from well #1 into well #2. 1:3 serial dilutions were continued out 10 steps. 2 μl of diluted compound was transferred into duplicate wells of a 384 well “assay plate” and then 90 μL of buffer was added.
After incubation, both the cell and “assay plate” plates were brought to the fluorometric imaging plate reader (FLIPR®) and 20 μL of the diluted compounds were transferred to the cell plates by the FLIPR®. Plates were then incubated for 1 hour at room temperature. After the 1 hour incubation, plates were returned to the FLIPR® and 20 μL of 4.5× concentrated ligand was added to the cell plates. During the assay, fluorescence readings were taken simultaneously from all 384 wells of the cell plate every 1.5 seconds. Five readings were taken to establish a stable baseline, then 20 μL of sample was rapidly (30 μL/sec) and simultaneously added to each well of the cell plate. The fluorescence was continuously monitored before, during and after sample addition for a total elapsed time of 100 seconds. Responses (increase in peak fluorescence) in each well following agonist addition were determined. The initial fluorescence reading from each well, prior to ligand stimulation, was used as a zero baseline value for the data from that well. The responses were expressed as % inhibition of the buffer control. […]

On to `O=C(O)COc1cccc2c1CCCCC2NS(=O)(=O)c1cc(C(F)(F)F)cc(C(F)(F)F)c1` (single isomer, unassigned) [Example 46, [5-(3,5-Bis-trifluoromethyl-benzenesulfonylamino)-6,7,8,9-tetrahydro-5H-benzocyclohepten-1-yloxy]-acetic acid], for which the pIC50 is 6.73.

Take `O=C(O)COc1cccc2c1CCCCC2NS(=O)(=O)c1cc(C(F)(F)F)cc(C(F)(F)F)c1` (centres unmarked) [Example 1, [5-(3,5-Bis-trifluoromethyl-benzenesulfonylamino)-6,7,8,9-tetrahydro-5H-benzocyclohepten-1-yloxy]-acetic acid]: the pIC50 was 6.94.
